What all share (assay type): cell-based
One data set concerns HIV-1 (IIIB) strain. Description: Anti-HIV activity: inhibition of MT-4 cell death by HIV infection (MTT method). The note with it: MT-4 CD4+ T cells infected by HIV-1 (IIIB), 37° C., 5 days, MTT; average of at least three measurements; read-out: EC50 (concentration where MT-4 cell death by HIV infection is inhibited by 50%). How it is done:
(§1) HIV-1 (IIIB) strain obtained from MOLT/HIV-1 (IIIB) cell previously infected by HIV-1 was used. The polypeptide of the present invention was added to MT-4 CD4^+ T cells infected by HIV in various kinds of concentrations, and a number of living cells after culturing at 37° C. for 5 days was determined by using a 3′-(4,5-dimethylthiazol-2-yl)-2,5-diphenyltetrazolinium bromide (MTT) method. Anti-HIV activity is shown by a concentration (EC50 value), where MT-4 cell death by HIV infection is inhibited by 50%. Cytotoxicity of the peptide according to the present invention was shown by a 50% survival concentration (Test I: CC50 value) by culturing virus-uninfected MT-4 cells with the polypeptide according to the present invention in various concentrations, and determining a number of living cells by the MTT method. Moreover, a number of living cells of human peripheral blood mononuclear cells (monocyte) (PBMC) was determined by trypan blue dyeing method, and shown by a 50% survival concentration (Test II: CC50 value). Respective ratios of the CC50 value and the EC50 value were shown as a selective index (SI). Obtained values were summarized in Table 3 using the conventionally known polypeptides T134 and T140, and an anti-HIV compound: 3′-azido-2′,3′-dideoxythymidine (AZT) used as a medicine as a control anti-HIV agent.

Data set [1] concerns virus-uninfected MT-4 cells. Put plainly: Cytotoxicity Test I: virus-uninfected MT-4 cells, MTT method. The note with it: for SI: CC50 (Test I)/EC50: selective index, MT-4 CC50 over anti-HIV EC50. How it is done:
as §1

Experiment in data set [2]: as above
The note with it: human, MT-4 cells (virus-uninfected); virus-uninfected MT-4 cells, MTT method; read-out: CC50 (Test I), 50% survival concentration. The procedure: as §1

Where a SMILES comes first, the peptide text is derived from it. Bridges are numbered along the chain shown (N, C = ends). [ ]: non-standard residue; d: D form. 2Nal = N[C@@H](Cc1ccc2ccccc2c1)C(=O)O; Cit = NC(=O)NCCC[C@H](N)C(=O)O

Consider five molecules from patent US8435939B2, “Polypeptide anti-HIV agent containing the same” (priority 2000, dated 2013).

As to `C[C@H](N)C(=O)N[C@@H](CCCNC(=N)N)C(=O)N[C@@H](Cc1ccc2ccccc2c1)C(=O)N[C@H]1CSSC[C@@H](C(=O)N[C@@H](CCCNC(=N)N)C(=O)O)NC(=O)[C@H](CCCNC(N)=O)NC(=O)[C@H](CCCNC(=N)N)NC(=O)[C@H](Cc2ccc(O)cc2)NC(=O)[C@@H]2CCCN2C(=O)[C@@H](CCCCN)NC(=O)[C@H](CCCCN)NC(=O)[C@H](CCCNC(=N)N)NC(=O)[C@H](Cc2ccc(O)cc2)NC1=O` [TA14001, H-Arg-Arg-Nal-Cys-Tyr-Arg-Lys-DLys-Pro-Tyr-Arg-Cit-Cys-Arg-OH] (H-AR[2Nal]CYRK[dK]PYR[Cit]CR-OH; disulfide 4-13), the EC50 in the data set on HIV-1 (IIIB) strain is 0.056 µM. For the same molecule, the “SI: CC50 (Test I)/EC50” value in data set [1] is >750. Moreover, the CC50 in data set [2] was > 40 µM.

For the molecule `N=C(N)NCCC[C@H](NC(=O)[C@@H]1CSSC[C@H](NC(=O)[C@H](Cc2ccc3ccccc3c2)NC(=O)[C@H](CCCNC(=N)N)NC(=O)[C@@H](N)CCCNC(=N)N)C(=O)N[C@@H](Cc2ccc(O)cc2)C(=O)N[C@@H](CCCNC(=N)N)C(=O)N[C@@H](CCCCN)C(=O)N[C@H](CCCNC(N)=O)C(=O)N2CCC[C@H]2C(=O)N[C@@H](Cc2ccc(O)cc2)C(=O)N[C@@H](CCCNC(=N)N)C(=O)N[C@@H](CCCNC(N)=O)C(=O)N1)C(N)=O` [TN14005, H-Arg-Arg-Nal-Cys-Tyr-Arg-Lys-DCit-Pro-Tyr-Arg-Cit-Cys-Arg-NH2], in the data set with HIV-1 (IIIB) strain, the EC50 stood at 0.0046 µM. Besides, in data set [1] (conclusion drawn from Table 3), the “cytotoxicity in words, compared with conventional T134/T140” value is reported as “cytotoxicity is markedly lowered”. In data set [1], the “SI: CC50 (Test I)/EC50” value was >21000. Besides, in data set [2], the CC50 is > 100 µM.

In the case of `C[C@@H]1NC(=O)[C@H](CCCN=C(N)N)NC(=O)[C@H](Cc2ccc(O)cc2)NC(=O)[C@@H](NC(=O)[C@H](Cc2ccc3ccccc3c2)NC(=O)[C@H](CCCN=C(N)N)NC(=O)[C@@H](N)CCCN=C(N)N)CSSC[C@@H](C(=O)N[C@@H](CCCN=C(N)N)C(=O)O)NC(=O)[C@H](CCCNC(N)=O)NC(=O)[C@H](CCCN=C(N)N)NC(=O)[C@H](Cc2ccc(O)cc2)NC(=O)[C@@H]2CCCN2C(=O)[C@@H](CCCCN)NC1=O` [TA14006, H-Arg-Arg-Nal-Cys-Tyr-Arg-Ala-DLys-Pro-Tyr-Arg-Cit-Cys-Arg-OH] (H-RR[2Nal]CYRA[dK]PYR[Cit]CR-OH; disulfide 4-13), in data set [1], the “SI: CC50 (Test I)/EC50” value is given as >1800. Moreover, the CC50 in data set [2] was > 80 µM.

Regarding `C[C@H]1NC(=O)[C@H](CCCCN)NC(=O)[C@H](CCCN=C(N)N)NC(=O)[C@H](Cc2ccc(O)cc2)NC(=O)[C@@H](NC(=O)[C@H](Cc2ccc3ccccc3c2)NC(=O)[C@H](CCCN=C(N)N)NC(=O)[C@@H](N)CCCN=C(N)N)CSSC[C@@H](C(=O)N[C@@H](CCCN=C(N)N)C(=O)O)NC(=O)[C@H](CCCNC(N)=O)NC(=O)[C@H](CCCN=C(N)N)NC(=O)[C@H](Cc2ccc(O)cc2)NC(=O)[C@@H]2CCCN2C1=O` [TA14007, H-Arg-Arg-Nal-Cys-Tyr-Arg-Lys-DAla-Pro-Tyr-Arg-Cit-Cys-Arg-OH] (H-RR[2Nal]CYRK[dA]PYR[Cit]CR-OH; disulfide 4-13), the “SI: CC50 (Test I)/EC50” value in data set [1] is >5200. Further, the CC50 in data set [2] was > 80 µM.

`C[C@@H]1NC(=O)[C@@H]2CCCN2C(=O)[C@@H](CCCCN)NC(=O)[C@H](CCCCN)NC(=O)[C@H](CCCN=C(N)N)NC(=O)[C@H](Cc2ccc(O)cc2)NC(=O)[C@@H](NC(=O)[C@H](Cc2ccc3ccccc3c2)NC(=O)[C@H](CCCN=C(N)N)NC(=O)[C@@H](N)CCCN=C(N)N)CSSC[C@@H](C(=O)N[C@@H](CCCN=C(N)N)C(=O)O)NC(=O)[C@H](CCCNC(N)=O)NC(=O)[C@H](CCCN=C(N)N)NC1=O` [TA14009, H-Arg-Arg-Nal-Cys-Tyr-Arg-Lys-DLys-Pro-Ala-Arg-Cit-Cys-Arg-OH] (H-RR[2Nal]CYRK[dK]PAR[Cit]CR-OH; disulfide 4-13): in data set [1], the “SI: CC50 (Test I)/EC50” value is on record as >4500. In data set [2], the CC50 was > 80 µM.
